Experimental data from paper PMC4819222, “CD300c is uniquely expressed on CD56^bright Natural Killer Cells and differs from CD300a upon ligand recognition” (Scientific Reports, 2016).

How the values were obtained:
CD300c-Ig = biological target: T1, CD300c-Ig (Homo sapiens, UniProt Q08708); test: ELISA on plates coated with pure lipid; SPR on L1-chip liposomes (Biacore T200); assay type: binding; details: immobilised lipid; Fc fusion protein as analyte
T1 construct: extracellular domain fused to Fc fragment of human IgG2 (Fc as tag)
T1 sequence (Q08708 21-183 limits assumed): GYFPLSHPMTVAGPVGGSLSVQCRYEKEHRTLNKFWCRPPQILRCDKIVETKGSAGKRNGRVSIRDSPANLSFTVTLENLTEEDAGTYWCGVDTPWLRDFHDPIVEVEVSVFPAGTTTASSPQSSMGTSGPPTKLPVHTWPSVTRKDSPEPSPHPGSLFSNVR

CD300a-Ig = biological target: T2, CD300a-Ig (Homo sapiens, UniProt Q9UGN4); test: as above; assay type: binding; details: immobilised lipid; Fc fusion protein as analyte
T2 construct: Ig (Fc) fusion protein, Fc as tag
T2 sequence (Q9UGN4 18-180 limits assumed): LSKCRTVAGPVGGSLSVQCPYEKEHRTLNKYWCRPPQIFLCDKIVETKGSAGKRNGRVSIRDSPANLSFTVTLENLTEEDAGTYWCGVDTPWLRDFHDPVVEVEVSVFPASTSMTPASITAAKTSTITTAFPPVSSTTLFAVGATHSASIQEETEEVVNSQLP

Question: What does the source list for `CCCCCCCC/C=C\CCCCCCCC(=O)O[C@H](COC(=O)CCCCCCCCCCCCCCC)COP(=O)(O)OCCN` [PE, 1-palmitoyl-2-oleoyl (PO) phosphatidylethanolamine (POPE)]?
Answer: ELISA on plates coated with pure lipid; SPR on L1-chip liposomes (Biacore T200) (CD300c-Ig): CD300c-Ig binds to both PS and PE at the same level; ELISA on plates coated with pure lipid; SPR on L1-chip liposomes (Biacore T200) (CD300a-Ig): CD300a-Ig predominantly binds to PE
